Values of other authors in US11384062B2 (CombiPhos Catalysts, Inc., priority 2017, dated 2022).
Read-outs that look alike come from different tables or passages of the source.

Key:
[1] = dosed IV to bile duct cannulated rats; cited from earlier work
[2] = tested on: recurrent ovarian cancer; conditions: cited from earlier work
[3] = tested on: PARP; conditions: read-out: EC50, inhibition of PARP activity; whole cell assay; cited from earlier work
[4] = tested on: CAPAN-1 pancreatic cancer cell xenograft; conditions: 80 mg/kg qd, oral dosing, for two, three, or four weeks; cited from earlier work
[5] = tested on: BRCA-1 deficient cancer xenograft; conditions: cited from earlier work
[6] = tested on: cancer cells with mutant BRCA-1 and BRCA-2; conditions: read-out: CC50, inhibition of proliferation; cited from earlier work
[7] = tested on: human tumor xenografts, p53 wild type and p53 mutant; conditions: variety of human tumor xenografts; cited from earlier work

Row | Compound | recovered radioactivity as the parent drug [1] [%] | median PFS ([2]; germline BRCA mutant patients) [months] | median PFS ([2]; non-gBRCAmut cohort, HRD-positive tumors) [months] | median PFS ([2]; overall non-germline BRCA mutant cohort) [months] | discontinuation rate ([2]; patients) [%] | treatment-emergent grade 3/4 adverse event: anemia ([2]; patients) [%] | treatment-emergent grade 3/4 adverse event: neutropenia ([2]; patients) [%] | treatment-emergent grade 3/4 adverse event: thrombocytopenia ([2]; patients) [%] | EC50 [3] [nM] | tumor growth inhibition [4] [%] | tumor growth ([5]; 80 mg/kg qd, oral dosing, after one or two weeks of treatment) | tumor growth ([5]; after four week treatment) | tumor growth ([5]; continuous daily dosing for three or four weeks) | CC50 [6] [nM] | effect on radiation response [7]
1 | NC(=O)c1cccc2cn(-c3ccc([C@@H]4CCCNC4)cc3)nc12 [[^14C]-niraparib] | 45 |  |  |  |  |  |  |  |  |  |  |  |  |  | 
2 | NC(=O)c1cccc2cn(-c3ccc([C@@H]4CCCNC4)cc3)nc12 [niraparib, (S)-2-(4-(piperidin-3-yl)phenyl)-2H-indazole-7-carboxamide] |  | 21.0 | 12.9 | 9.3 | 14.7 | 24.8 | 11.2 | 28.3 | […] | ~60 | significant inhibition of tumor growth | complete and sustained regression | tumor shrinkage | 10 to 100 | strongly enhances the effect of radiation
